The test concerns the target T1, full-length beta-catenin (Axin site) (Homo sapiens, UniProt P35222).
T1 construct: 15 nM full-length beta-catenin, 20 nM FITC labeled peptide in buffer
T1 sequence (P35222 1-781): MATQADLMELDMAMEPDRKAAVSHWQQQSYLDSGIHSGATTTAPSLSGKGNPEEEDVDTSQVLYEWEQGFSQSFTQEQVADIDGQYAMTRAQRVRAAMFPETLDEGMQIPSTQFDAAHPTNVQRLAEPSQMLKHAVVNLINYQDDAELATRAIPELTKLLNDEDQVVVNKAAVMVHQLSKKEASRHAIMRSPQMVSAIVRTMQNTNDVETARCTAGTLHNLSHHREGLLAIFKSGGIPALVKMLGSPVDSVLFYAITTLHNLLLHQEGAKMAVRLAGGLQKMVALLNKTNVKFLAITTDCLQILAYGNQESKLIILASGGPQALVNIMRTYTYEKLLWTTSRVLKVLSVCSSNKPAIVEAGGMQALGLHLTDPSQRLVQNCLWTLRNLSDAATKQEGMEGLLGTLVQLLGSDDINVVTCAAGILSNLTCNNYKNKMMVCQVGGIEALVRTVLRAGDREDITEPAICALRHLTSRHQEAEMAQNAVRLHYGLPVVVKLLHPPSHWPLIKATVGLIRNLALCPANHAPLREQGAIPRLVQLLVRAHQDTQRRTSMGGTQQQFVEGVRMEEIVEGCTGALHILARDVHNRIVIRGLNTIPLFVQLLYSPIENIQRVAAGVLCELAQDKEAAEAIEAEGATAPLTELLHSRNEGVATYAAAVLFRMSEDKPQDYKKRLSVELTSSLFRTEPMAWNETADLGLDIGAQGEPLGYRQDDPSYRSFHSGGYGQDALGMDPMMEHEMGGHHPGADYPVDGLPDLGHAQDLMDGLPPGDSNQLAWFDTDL
Put plainly: Competition fluorescence polarization assay (Axin site probe). In kind it is binding. The gist of the method: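 Competition FP: 15 nM full-length β-catenin pre-incubated 5 min with 20 nM FITC-labelled stapled Axin-site peptide, then titrated peptide added (3-fold series from 5 μM) for 15 min in the dark. Buffer 50 mM Tris pH 8.0, 250 mM NaCl, 2% glycerol, 0.5 mM EDTA; duplicate reads.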
A general note: Fluorescence polarisation rises when a labelled molecule tumbles more slowly, as on binding a larger partner.

Where [1] appears, read: competition fluorescence polarization, Table 2, read-out: in vitro FP EC50.
Setting [2] is: competition with FITC labeled Axin-site probe, 15 nM full-length beta-catenin, read-out: FP EC50.

Where two headings read alike, the source gives them in different places.

EC50 data for 13 compounds are collected here from patent US11198713B2, “Agents modulating beta-catenin functions and methods thereof” (FOG PHARMACEUTICALS, INC., priority 2017, dated 2021).

By EC50 is commonly meant the concentration that produces a half-maximal response.

For `CC[C@H](C)[C@@H]1NC(=O)[C@](C)(NC(=O)[C@H](CCC(N)=O)NC(=O)[C@@H]2CCCN2C(C)=O)CCCCCC=CCOC(=O)N2CC[C@](C(=O)N[C@@H](Cc3c[nH]cn3)C(=O)N[C@H](C(=O)N[C@@H](CCCNC(=N)N)C(=O)N[C@@H](CCCNC(=N)N)C(=O)N[C@H](C(=O)N[C@@H](Cc3c[nH]c4ccccc34)C(=O)N[C@@H](CCCNC(=N)N)C(N)=O)C(C)C)C(C)C)(C2)NC(=O)[C@H](CC(=O)O)NC(=O)[C@H](CC(C)C)NC1=O` (single isomer, unassigned) [FP0768c, Ac-P-Q-R7-I-L-D-MC-H-V-R-R-V-W-R-NH2], the EC50 under setting [1] was 100 to 500 nM.

`CC[C@H](C)[C@@H]1NC(=O)[C@](C)(NC(=O)[C@H](CCC(N)=O)NC(=O)[C@@H]2CCCN2C(C)=O)CCCC=CCN(C)CC[C@](C)(C(=O)N[C@@H](Cc2c[nH]cn2)C(=O)N[C@H](C(=O)N[C@@H](CCCNC(=N)N)C(=O)N[C@@H](CCCNC(=N)N)C(=O)N[C@H](C(=O)N[C@@H](Cc2c[nH]c3ccccc23)C(=O)N[C@@H](CCCNC(=N)N)C(N)=O)C(C)C)C(C)C)NC(=O)[C@H](CC(=O)O)NC(=O)[C@H](CC(C)C)NC1=O` (single isomer, unassigned) [FP0776a, Ac-P-Q-R5-I-L-D-MG-H-V-R-R-V-W-R-NH2]: the half-maximal effective concentration (EC50) under setting [1] fell in the range of 500 to 5000 nM.

In the case of `CC[C@H](C)[C@@H]1NC(=O)[C@](C)(NC(=O)[C@H](CCC(N)=O)NC(=O)[C@@H]2CCCN2C(C)=O)CCCC=CCOC(=O)N(C)CC[C@](C)(C(=O)N[C@@H](Cc2c[nH]cn2)C(=O)N[C@H](C(=O)N[C@@H](CCCNC(=N)N)C(=O)N[C@@H](CCCNC(=N)N)C(=O)N[C@H](C(=O)N[C@@H](Cc2c[nH]c3ccccc23)C(=O)N[C@@H](CCCNC(=N)N)C(N)=O)C(C)C)C(C)C)NC(=O)[C@H](CC(=O)O)NC(=O)[C@H](CC(C)C)NC1=O` (single isomer, unassigned) [FP0776c, Ac-P-Q-R5-I-L-D-MG-H-V-R-R-V-W-R-NH2], the EC50 under setting [1] was in the range of 500 to 5000 nM.

`CC[C@H](C)[C@@H]1NC(=O)[C@](C)(NC(=O)[C@H](CCC(N)=O)NC(=O)[C@@H]2CCCN2C(C)=O)CCCC=CCN(C)CCC[C@](C)(C(=O)N[C@@H](Cc2c[nH]cn2)C(=O)N[C@H](C(=O)N[C@@H](CCCNC(=N)N)C(=O)N[C@@H](CCCNC(=N)N)C(=O)N[C@H](C(=O)N[C@@H](Cc2c[nH]c3ccccc23)C(=O)N[C@@H](CCCNC(=N)N)C(N)=O)C(C)C)C(C)C)NC(=O)[C@H](CC(=O)O)NC(=O)[C@H](CC(C)C)NC1=O` (single isomer, unassigned) [FP0777a, Ac-P-Q-R5-I-L-D-MI-H-V-R-R-V-W-R-NH2]: the EC50 under setting [1] was 500 to 5000 nM.

In the case of `CC[C@H](C)[C@@H]1NC(=O)[C@](C)(NC(=O)[C@H](CCC(N)=O)NC(=O)[C@@H]2CCCN2C(C)=O)CCCC=CCOC(=O)N(C)CCC[C@](C)(C(=O)N[C@@H](Cc2c[nH]cn2)C(=O)N[C@H](C(=O)N[C@@H](CCCNC(=N)N)C(=O)N[C@@H](CCCNC(=N)N)C(=O)N[C@H](C(=O)N[C@@H](Cc2c[nH]c3ccccc23)C(=O)N[C@@H](CCCNC(=N)N)C(N)=O)C(C)C)C(C)C)NC(=O)[C@H](CC(=O)O)NC(=O)[C@H](CC(C)C)NC1=O` (single isomer, unassigned) [FP0777c, Ac-P-Q-R5-I-L-D-MI-H-V-R-R-V-W-R-NH2], the 50% effective concentration (EC50) under setting [1] lay within 500 to 5000 nM.

As for `CC[C@H](C)[C@@H]1NC(=O)[C@@](C)(NC(=O)[C@H](CCC(N)=O)NC(=O)[C@@H]2CCCN2C(C)=O)CN(C)C(=O)OCC=CCCC[C@@](C)(C(=O)N[C@@H](Cc2c[nH]cn2)C(=O)N[C@H](C(=O)N[C@@H](CCCNC(=N)N)C(=O)N[C@@H](CCCNC(=N)N)C(=O)N[C@H](C(=O)N[C@@H](Cc2c[nH]c3ccccc23)C(=O)N[C@@H](CCCNC(=N)N)C(N)=O)C(C)C)C(C)C)NC(=O)[C@H](CC(=O)O)NC(=O)[C@H](CC(C)C)NC1=O` (single isomer, unassigned) [FP0778c, Ac-P-Q-MD-I-L-D-S5-H-V-R-R-V-W-R-NH2], the EC50 under setting [1] fell in the range of 500 to 5000 nM.

For the compound `CC[C@H](C)[C@@H]1NC(=O)[C@@](C)(NC(=O)[C@H](CCC(N)=O)NC(=O)[C@@H]2CCCN2C(C)=O)CCN(C)C(=O)OCC=CCCC[C@@](C)(C(=O)N[C@@H](Cc2c[nH]cn2)C(=O)N[C@H](C(=O)N[C@@H](CCCNC(=N)N)C(=O)N[C@@H](CCCNC(=N)N)C(=O)N[C@H](C(=O)N[C@@H](Cc2c[nH]c3ccccc23)C(=O)N[C@@H](CCCNC(=N)N)C(N)=O)C(C)C)C(C)C)NC(=O)[C@H](CC(=O)O)NC(=O)[C@H](CC(C)C)NC1=O` (single isomer, unassigned) [FP0779c, Ac-P-Q-MF-I-L-D-S5-H-V-R-R-V-W-R-NH2], the EC50 under setting [1] is 500 to 5000 nM.

As for `CC[C@H](C)[C@@H]1NC(=O)[C@@](C)(NC(=O)[C@H](CCC(N)=O)NC(=O)[C@@H]2CCCN2C(C)=O)CCCN(C)C(=O)OCC=CCCC[C@@](C)(C(=O)N[C@@H](Cc2c[nH]cn2)C(=O)N[C@H](C(=O)N[C@@H](CCCNC(=N)N)C(=O)N[C@@H](CCCNC(=N)N)C(=O)N[C@H](C(=O)N[C@@H](Cc2c[nH]c3ccccc23)C(=O)N[C@@H](CCCNC(=N)N)C(N)=O)C(C)C)C(C)C)NC(=O)[C@H](CC(=O)O)NC(=O)[C@H](CC(C)C)NC1=O` (single isomer, unassigned) [FP0780c, Ac-P-Q-MH-I-L-D-S5-H-V-R-R-V-W-R-NH2], the EC50 under setting [1] was 500 to 5000 nM.

Turning to `CC[C@H](C)[C@@H]1NC(=O)[C@](C)(NC(=O)[C@H](CCC(N)=O)NC(=O)[C@@H]2CCCN2C(C)=O)CCN(C)C(=O)OCC=CCCC[C@](C)(C(=O)N[C@@H](Cc2c[nH]cn2)C(=O)N[C@H](C(=O)N[C@@H](CCCNC(=N)N)C(=O)N[C@@H](CCCNC(=N)N)C(=O)N[C@H](C(=O)N[C@@H](Cc2c[nH]c3ccccc23)C(=O)N[C@@H](CCCNC(=N)N)C(N)=O)C(C)C)C(C)C)NC(=O)[C@H](CC(=O)O)NC(=O)[C@H](CC(C)C)NC1=O` (single isomer, unassigned) [FP0782c, Ac-P-Q-MG-I-L-D-R5-H-V-R-R-V-W-R-NH2], the EC50 under setting [1] was 100 to 500 nM.

As for `CC[C@H](C)[C@@H]1NC(=O)[C@](C)(NC(=O)[C@H](CCC(N)=O)NC(=O)[C@@H]2CCCN2C(C)=O)CCCN(C)CC=CCCC[C@](C)(C(=O)N[C@@H](Cc2c[nH]cn2)C(=O)N[C@H](C(=O)N[C@@H](CCCNC(=N)N)C(=O)N[C@@H](CCCNC(=N)N)C(=O)N[C@H](C(=O)N[C@@H](Cc2c[nH]c3ccccc23)C(=O)N[C@@H](CCCNC(=N)N)C(N)=O)C(C)C)C(C)C)NC(=O)[C@H](CC(=O)O)NC(=O)[C@H](CC(C)C)NC1=O` (single isomer, unassigned) [FP0783a, Ac-P-Q-MI-I-L-D-R5-H-V-R-R-V-W-R-NH2], the half-maximal effective concentration (EC50) under setting [1] was 500 to 5000 nM.

With `CC[C@H](C)[C@@H]1NC(=O)[C@](C)(NC(=O)[C@H](CCC(N)=O)NC(=O)[C@@H]2CCCN2C(C)=O)CCCN(C)C(=O)OCC=CCCC[C@](C)(C(=O)N[C@@H](Cc2c[nH]cn2)C(=O)N[C@H](C(=O)N[C@@H](CCCNC(=N)N)C(=O)N[C@@H](CCCNC(=N)N)C(=O)N[C@H](C(=O)N[C@@H](Cc2c[nH]c3ccccc23)C(=O)N[C@@H](CCCNC(=N)N)C(N)=O)C(C)C)C(C)C)NC(=O)[C@H](CC(=O)O)NC(=O)[C@H](CC(C)C)NC1=O` (single isomer, unassigned) [FP0783c, Ac-P-Q-MI-I-L-D-R5-H-V-R-R-V-W-R-NH2], the EC50 under setting [1] was in the range of 500 to 5000 nM.

Take `CC[C@H](C)[C@@H]1NC(=O)C2(NC(=O)[C@H](CCC(N)=O)NC(=O)[C@@H]3CCCN3C(C)=O)CN(C2)C(=O)OCC=CCC[C@](C)(C(=O)N[C@@H](Cc2c[nH]cn2)C(=O)N[C@H](C(=O)N[C@@H](CCCNC(=N)N)C(=O)N[C@@H](CCCNC(=N)N)C(=O)N[C@H](C(=O)N[C@@H](Cc2c[nH]c3ccccc23)C(=O)N[C@@H](CCCNC(=N)N)C(N)=O)C(C)C)C(C)C)NC(=O)[C@H](CC(=O)O)NC(=O)[C@H](CC(C)C)NC1=O` (single isomer, unassigned) [FP-0721c, Ac-P-Q-Az-I-L-D-R4-H-V-R-R-V-W-R-NH2]: under setting [2], the 50% effective concentration (EC50) is 1300 nM.

Turning to `CC[C@H](C)[C@@H]1NC(=O)C2(NC(=O)[C@H](CCC(N)=O)NC(=O)[C@@H]3CCCN3C(C)=O)CN(C2)C(=O)OCC=CCCC[C@](C)(C(=O)N[C@@H](Cc2c[nH]cn2)C(=O)N[C@H](C(=O)N[C@@H](CCCNC(=N)N)C(=O)N[C@@H](CCCNC(=N)N)C(=O)N[C@H](C(=O)N[C@@H](Cc2c[nH]c3ccccc23)C(=O)N[C@@H](CCCNC(=N)N)C(N)=O)C(C)C)C(C)C)NC(=O)[C@H](CC(=O)O)NC(=O)[C@H](CC(C)C)NC1=O` (single isomer, unassigned) [FP-0723c, Ac-P-Q-Az-I-L-D-R5-H-V-R-R-V-W-R-NH2], the EC50 under setting [2] stood at 1400 nM.
